Measured values from patent US6617351B1, “Amide, carbamate, and urea derivatives” (Eli Lilly and Company, priority 1998, dated 2003).

Target: T1, human GluR4B receptor (Homo sapiens, UniProt P48058)
T1 construct: expressed in transfected cells; host or cells: HEK293
Assay: potentiation of agonist-induced excitability of human GluR4B receptor expressed in HEK 293 cells
Assay type: cell-based
Excerpt: The ability of compounds of formula I to potentiate glutamate receptor-mediated response may be determined using fluorescent calcium indicator dyes (Molecular Probes, Eugene, Oreg., Fluo-3) and by measuring glutamate-evoked efflux of calcium into GluR4 transfected HEK293 cells, as described in more detail below.
In one test, 96 well plates containing confluent monolayers of HEK cells stably expressing human GluR4B (obtained as described in European Patent Application Publication Number EP-A1-583917) are prepared. […]
Each test is then performed as follows. […] A second fluorescent reading is taken after 5 minutes incubation. 15 μl of 400 μM glutamate solution is then added to each well (final glutamate concentration 100 μM), and a third reading is taken. The activities of test compounds and cyclothiazide solutions are determined by subtracting the second from the third reading (fluorescence due to addition of glutamate in the presence or absence of test compound or cyclothiazide) and are expressed relative to enhance fluorescence produced by 100 μM cyclothiazide.
In another test, HEK293 cells stably expressing human GluR4 (obtained as described in European Patent Application Publication No. EP-A1-0583917) are used in the electro-physiological characterization of AMPA receptor potentiators. […] Responses to 1 mM glutamate are then determined in the presence of test compound. […]

T1 sequence (P48058 21-902): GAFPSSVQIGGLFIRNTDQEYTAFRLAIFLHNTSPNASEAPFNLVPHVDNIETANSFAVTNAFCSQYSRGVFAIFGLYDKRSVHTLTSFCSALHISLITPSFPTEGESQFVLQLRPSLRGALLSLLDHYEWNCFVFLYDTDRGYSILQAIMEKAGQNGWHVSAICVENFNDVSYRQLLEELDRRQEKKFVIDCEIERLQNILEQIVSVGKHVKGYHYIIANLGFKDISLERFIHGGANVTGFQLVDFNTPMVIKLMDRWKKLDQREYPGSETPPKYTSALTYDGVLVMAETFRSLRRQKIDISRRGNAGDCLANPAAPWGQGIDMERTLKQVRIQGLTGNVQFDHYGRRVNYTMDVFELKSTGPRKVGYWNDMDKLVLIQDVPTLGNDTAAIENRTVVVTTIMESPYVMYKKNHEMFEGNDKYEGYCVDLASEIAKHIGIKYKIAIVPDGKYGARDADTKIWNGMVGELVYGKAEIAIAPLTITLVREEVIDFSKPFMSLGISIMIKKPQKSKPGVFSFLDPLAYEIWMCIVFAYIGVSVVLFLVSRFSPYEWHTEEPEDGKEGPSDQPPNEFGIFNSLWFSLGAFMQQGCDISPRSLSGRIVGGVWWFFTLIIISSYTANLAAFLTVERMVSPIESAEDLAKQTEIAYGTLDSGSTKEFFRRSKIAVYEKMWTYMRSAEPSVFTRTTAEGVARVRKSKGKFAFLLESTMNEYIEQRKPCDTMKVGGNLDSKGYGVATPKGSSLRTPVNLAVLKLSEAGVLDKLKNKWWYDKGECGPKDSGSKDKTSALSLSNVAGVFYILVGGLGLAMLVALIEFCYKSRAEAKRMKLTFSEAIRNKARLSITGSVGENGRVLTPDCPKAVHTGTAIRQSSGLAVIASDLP

Question: Which “potentiation of agonist-induced excitability” value does the source give for `NS(=O)(=O)c1cc2c(cc1Cl)NC(C1CC3C=CC1C3)NS2(=O)=O` (stereo not shown) [cyclothiazide] here?
Answer: potentiate agonist-induced excitability
